Data taken from patent US20230399327A1, “HIGH ACTIVITY HPK1 KINASE INHIBITOR” (ADLAI NORTYE BIOPHARMA CO., LTD., priority 2020, published 2023).

Tests used:
PBMC = PBMC IL-2 ELISA assay (IL-2 secretion after anti-CD3/anti-CD28); format: cell-based, human; details: highest signal vs 0.1% DMSO, anti-CD3/CD28, 24 h
Procedure: Test Example 5: Detection of Compound's Activating Ability to Secrete Cytokine Interleukin-2 (IL-2) from PBMC (Method 5)
The specific operation is as follows: the compound powder was dissolved in DMSO to 10 mM, 2 μl of the compound was added to 998 μl of RPMI 1640 medium (contained 10% FBS in this test), and the highest concentration point was obtained after vortexing. The compound solution was gradually diluted 3 times with 0.2% DMSO medium, with a total of 8 concentration points. That treated with RPMI 1640 medium solution containing 0.1% DMSO was used as a control. 1×10˜ 5 PBMC cells were added to each well of Corning 96-well cell culture plate (item number: 3599), and then the same volume of compound diluent was added to the control group. RPMI 1640 medium containing 0.2% DMSO was added to the control group and incubated in a 37° C. cell incubator (Thermo Fisher Scientific, model: 3111) for 1 hour. Then add Anti-human CD3 Antibody and 1 μg/ml Anti-human CD28 Antibody at a final concentration of 0.1 μg/ml, and place in a 37° C. cell culture incubator to incubate for 24 hours. The Human IL-2 DuoSet ELISA KIT was used to detect the IL-2 content in the cell supernatant, and the Human IL-2 DuoSet ELISA detection was performed according to the operating instructions of the kit. Data are described as the highest fold ratio of the stimulated signal of the compound to the signal of 0.1% DMSO.

HPK1 kinase = HPK1 kinase (Homo sapiens (Human), UniProt Q92918); experiment: HPK1 kinase activity inhibition (ADP-Glo Kinase Assay); format: biochemical; details: HPK1, MBP substrate, ATP, 25° C. 60 min
Procedure: Test Example 1: Detection of Compound's Ability to Inhibit HPK1 Kinase Activity (Method 1)
The specific operation is as follows: configure the enzymatic reaction system buffer (10 mM MOPS, pH 7.2, 5 mM β-glycerol-phosphate, 10 mM MgCl2, 0.8 mM EDTA, 2 mM EGTA, 0.1 mM DTT); the test compound (1 mM the compound stock solution in DMSO) was diluted with buffer to the highest concentration of 60 uM (containing 6% DMSO), and the compound with a concentration of 60 μM was initially diluted 5 times with a buffer containing 6% DMSO for a total of 8 points of gradient concentration; then dilute HPK1 kinase to 30 nM in buffer. Add 2 μl of HPK1 kinase diluent to each well of a Greiner 384-well microplate (Cat. No. 784075), and add 2 μl of buffer to the control well; add 1 μl of the diluted compound to the reaction well after brief centrifugation, and add 1 μl buffer solution containing 6% DMSO to the control well; after short centrifugation, place in a 25° C. constant temperature incubator (Shanghai Yiheng Scientific Instrument Co., Ltd., Cat. No.: LRH-150) and incubate for 20 minutes. Add 3 μl of reaction substrate (10 μM MBP and 20 μM ATP dissolved in distilled water) to each well, briefly centrifuge and incubate in a constant temperature incubator at 25° C. for 60 min, and use ADP-Glo Kinase Assay Kit to detect the enzymatic reaction activity, ADP-Glo Kinase Assay Kit detection is carried out according to the operating instructions of the kit. Data are described using the half maximal inhibitory concentration IC50 of the compound.

mouse spleen cells = experiment: Spleen IL-2 ELISA assay (IL-2 secretion after Concanavalin A); format: cell-based, mouse (C57BL/6); details: highest signal vs 0.1% DMSO, ConA, 24 h
Procedure: Test Example 3: Detection of Compound's Activating Ability to Secrete Cytokine Interleukin-2 (IL-2) from Mouse Spleen Cells (Method 3)
The specific operation is as follows: the compound powder was dissolved in DMSO to 10 mM, 2 μl of the compound was added to 998 μl of RPMI 1640 medium (contained 10% FBS in this test), and the highest concentration point was obtained after vortexing. The compound solution was gradually diluted 3 times with 0.2% DMSO medium, with a total of 8 concentration points. That treated with RPMI 1640 medium solution containing 0.1% DMSO was used as a control. Add 10^5 mouse spleen cells to each well of Corning 96-well cell culture plate (product number: 3599), then add an equal volume of compound dilution, add RPMI 1640 medium containing 0.2% DMSO to the control group, and place the cells at 37° C. to incubate for 1 h in a cell culture incubator (Thermo Fisher Scientific, model: 3111). Then add Concanavalin A at a final concentration of 0.4 μg/ml and place in a cell culture incubator at 37° C. for 24 hours. Mouse IL-2 DuoSet ELISA KIT was used to detect the IL-2 content in the cell supernatant, and the Mouse […] DuoSet ELISA detection was carried out according to the operating instructions of the kit. Data are described as the highest fold ratio of the stimulated signal of the compound to the signal of 0.1% DMSO.

DC2.4 cells = experiment: DC2.4 IL-6 ELISA assay (IL-6 secretion after LPS); format: cell-based, mouse; details: highest signal vs 0.1% DMSO, 24 h
Procedure: Test Example 4: Detection of Compound's Activating Ability to Stimulate DC2.4 Cells to Secrete Cytokine Interleukin-6 (IL-6) ([…])
The specific operation is as follows: the compound powder was dissolved in DMSO to 10 mM, 2 μl of the compound was added to 998 μl of RPMI 1640 medium (contained 10% FBS in this test), and the highest concentration point was obtained after vortexing. The compound solution was gradually diluted 3 times with 0.2% DMSO medium, with a total of 8 concentration points. That treated with RPMI 1640 medium solution containing 0.1% DMSO was used as a control. Add 10^5 DC2.4 cells to each well of Corning 96-well cell culture plate (product number: 3599), then add an equal volume of compound dilution, add RPMI 1640 medium containing 0.2% DMSO to the control group, and place the cells at 37° C. to incubate for 1 h in an incubator (Thermo Fisher Scientific, model: 3111). Subsequently, LPS was added at a final concentration of 3.2 ng/ml, and placed in a cell culture incubator at 37° C. for 24 hours. Mouse IL-6 DuoSet ELISA KIT was used to detect the IL-6 content in the cell supernatant, and the Mouse […] DuoSet ELISA detection was carried out according to the operating instructions of the kit. Data are described as the highest fold ratio of the stimulated signal of the compound to the signal of 0.1% DMSO.

[1] = at compound concentration 10 μM
[2] = at compound concentration 0.37 μM
[3] = at compound concentration 1.1 μM
[4] = at compound concentration 3.3 μM
[5] = at compound concentration 1.11 μM

Sequence of HPK1 kinase (Q92918 whole entry): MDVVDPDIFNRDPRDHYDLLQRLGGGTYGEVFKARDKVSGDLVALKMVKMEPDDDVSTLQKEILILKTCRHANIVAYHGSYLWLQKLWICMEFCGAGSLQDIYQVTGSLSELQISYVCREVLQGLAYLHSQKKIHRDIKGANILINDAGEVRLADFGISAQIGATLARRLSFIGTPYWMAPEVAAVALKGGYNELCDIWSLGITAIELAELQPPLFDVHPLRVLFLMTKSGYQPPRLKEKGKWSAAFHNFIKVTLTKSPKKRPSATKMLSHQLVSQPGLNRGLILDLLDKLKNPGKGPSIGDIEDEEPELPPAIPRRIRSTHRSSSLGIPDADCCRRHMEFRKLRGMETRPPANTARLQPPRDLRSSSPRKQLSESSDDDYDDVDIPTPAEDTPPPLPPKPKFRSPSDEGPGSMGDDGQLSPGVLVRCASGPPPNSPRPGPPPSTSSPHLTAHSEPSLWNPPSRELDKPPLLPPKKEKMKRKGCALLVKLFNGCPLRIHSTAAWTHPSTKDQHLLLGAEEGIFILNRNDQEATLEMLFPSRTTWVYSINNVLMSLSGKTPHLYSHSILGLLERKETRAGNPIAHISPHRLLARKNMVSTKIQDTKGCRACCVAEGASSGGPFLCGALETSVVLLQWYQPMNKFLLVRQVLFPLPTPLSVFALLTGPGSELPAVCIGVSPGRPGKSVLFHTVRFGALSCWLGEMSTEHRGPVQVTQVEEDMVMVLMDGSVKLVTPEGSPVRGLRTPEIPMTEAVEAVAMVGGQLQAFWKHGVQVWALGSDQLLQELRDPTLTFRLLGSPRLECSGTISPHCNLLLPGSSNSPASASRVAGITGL

Molecule	IC50 (HPK1 kinase)	% IL-6 increased (relative to DMSO control) (DC2.4 cells; [5])	other results
3-((8-(3,3-difluoropyrrolidin-1-yl)pyrido[3,4-d]pyrimidin-2-yl)amino)-1,6-dimethyl-5,6, 7,8-tetrahydro-1,6-naphthyridin-2(1H)-one [Example 85]	25.3 nM		% IL-2 increased (relative to DMSO control) (PBMC; [1]): 339%; % IL-2 increased (relative to DMSO control) (mouse spleen cells; [1]): 260%; % IL-6 increased (relative to DMSO control) (DC2.4 cells; [1]): 305.00%
COc1nc2c(cc1Nc1ncc3ccnc(N[C@@H](CO)C(C)C)c3n1)CN(C)CC2 [Example 92]	0.23 nM		% IL-2 increased (relative to DMSO control) (PBMC; [2]): 182%; % IL-2 increased (relative to DMSO control) (mouse spleen cells; [2]): 160%; % IL-6 increased (relative to DMSO control) (DC2.4 cells; [2]): 546.00%
COc1nc2c(cc1Nc1ncc3ccnc(N[C@@H]4CCC[C@H]4O)c3n1)CN(C)CC2 [Example 99]	< 0.1 nM		% IL-2 increased (relative to DMSO control) (PBMC; [3]): 236%; % IL-6 increased (relative to DMSO control) (DC2.4 cells; [1]): 526.00%
COc1nc2c(cc1Nc1ncc3ccnc(N[C@@H]4CCC[C@@H]4O)c3n1)CN(C)CC2 [Example 102]	< 0.1 nM	553.00%	% IL-2 increased (relative to DMSO control) (mouse spleen cells; [4]): 180%
COc1nc2c(cc1Nc1ncc3ccnc(N[C@H]4CCC[C@H]4O)c3n1)CN(C)CC2 [Example 104]	< 0.1 nM	341.00%	% IL-2 increased (relative to DMSO control) (PBMC; [2]): 139%; % IL-2 increased (relative to DMSO control) (mouse spleen cells; at compound concentration 0.0046 μM): 120%
COc1nc2c(cc1Nc1ncc3ccnc(N[C@H]4CCC[C@@H]4O)c3n1)CN(C)CC2 [Example 105]	< 0.1 nM	321.00%	% IL-2 increased (relative to DMSO control) (PBMC; [3]): 176%; % IL-2 increased (relative to DMSO control) (mouse spleen cells; [3]): 170%

Second part, led by results:

IC50 (HPK1 kinase)	Molecule	% IL-6 increased (relative to DMSO control) (DC2.4 cells; [5])	other results
0.23 nM	CN1CCc2c(cc(Nc3ncc4ccnc(C5=CCCCC5)c4n3)c(=O)n2C)C1 [Example 81, 3-((8-(cyclohex-1-en-1-yl)pyrido[3,4-d]pyrimidin-2-yl)amino)-1,6-dimethyl-5,6,7,8-tetrahydro-1,6-naphthyridin-2(1H)-one]		
< 0.1 nM	Cn1c2c(cc(Nc3ncc4ccnc(N5CCC(F)(F)CC5)c4n3)c1=O)CN(CCO)CC2 [Example 82, 3-((8-(4,4-difluoropiperidin-1-yl)pyrido[3,4-d]pyrimidin-2-yl)amino)-6-(2-hydroxyethyl)-1-methyl-5,6,7,8-tetrahydro-1,6-naphthyridin-2(1H)-one]		
0.16 nM	Cn1c2c(cc(Nc3ncc4ccnc(N5CCCCC5)c4n3)c1=O)CN(CCO)CC2 [Example 83, 6-(2-hydroxyethyl)-1-methyl-3-((8-(piperidin-1-yl)pyrido[3,4-d]pyrimidin-2-yl)amino)-5,6,7,8-tetrahydro-1,6-naphthyridin-2(1H)-one]		
0.43 nM	Cn1c2c(cc(Nc3ncc4ccnc(N5CCSCC5)c4n3)c1=O)CN(CCO)CC2 [Example 84, 6-(2-hydroxyethyl)-1-methyl-3-((8-thiomorpholinopyrido[3,4-d]pyrimidin-2-yl)amino)-5,6,7,8-tetrahydro-1,6-naphthyridin-2(1H)-one]		
56.3 nM	CN1CCc2c(cc(Nc3ncc4ccnc(N5CC6CC6C5)c4n3)c(=O)n2C)C1 (centres unmarked) [Example 86, 3-((8-(3-azabicyclo[3.1.0]hex-3-yl)pyrido[3,4-d]pyrimidin-2-yl)amino)-1,6-dimethyl-5,6,7,8-tetrahydro-1,6-naphthyridin-2(1H)-one]		
19.9 nM	COCCn1c2c(cc(Nc3ncc4ccnc(N5CCC(F)(F)CC5)c4n3)c1=O)CN(C)CC2 [Example 87, 3-((8-(4,4-difluoropiperidin-1-yl)pyrido[3,4-d]pyrimidin-2-yl)amino)-1-(2-methoxyethyl)-6-methyl-5,6,7,8-tetrahydro-1,6-naphthyridin-2(1H)-one]		
< 0.1 nM	COc1nc2c(cc1Nc1ncc3ccnc(N[C@@H]4CC[C@@H](O)C4)c3n1)CN(C)CC2 [Example 100]	623.00%	% IL-2 increased (relative to DMSO control) (PBMC; [2]): 239%; % IL-2 increased (relative to DMSO control) (mouse spleen cells; [4]): 190%
